Experimental data: PubChem BioAssay (NCI)
“And” between values parts separate entries of the source, which are not always exact repeats. Equal entries are not always repeated.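 Method: 48-hour compound exposure of cells in 96-well plates, five concentrations, linear interpolation of endpoints. Here, GI50 denotes the concentration required for 50% inhibition of growth. TGI: total growth inhibition.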

Tests used:
Assay in all cases: growth of human tumour cells (NCI), 48 h
OVCAR-5 ovarian = system: OVCAR-5 ovarian
UO-31 renal = system: UO-31 renal
HCT-15 colon = system: HCT-15 colon
A549 NSCLC = system: A549 NSCLC
OVCAR-3 ovarian = system: OVCAR-3 ovarian
NCI-H226 lung = system: NCI-H226 lung
SNB-75 CNS = system: SNB-75 CNS
SK-MEL-2 melanoma = system: SK-MEL-2 melanoma
PC-3 prostate = system: PC-3 prostate

Row | SMILES | TGI (OVCAR-5 ovarian) [µM] | TGI (UO-31 renal) [µM] | TGI (HCT-15 colon) | TGI (A549 NSCLC) | TGI (OVCAR-3 ovarian) [µM] | TGI (NCI-H226 lung) [µM] | TGI (SNB-75 CNS) [µM] | TGI (SK-MEL-2 melanoma) | GI50 (UO-31 renal) [µM] | GI50 (HCT-15 colon) [µM] | GI50 (A549 NSCLC) [µM] | GI50 (NCI-H226 lung) [µM] | GI50 (SNB-75 CNS) [µM] | GI50 (SK-MEL-2 melanoma) [µM] | GI50 (OVCAR-5 ovarian) [µM] | GI50 (OVCAR-3 ovarian) [µM] | GI50 (PC-3 prostate) [µM] | TGI (PC-3 prostate) [µM]
1 | OCC[N+]12CCCN1CCC2 | > 100 | > 100 | > 100 µM | > 100 µM | > 100 | > 100 | > 100 | > 100 µM | – | – | – | – | – | – | – | – | – | –
2 | c1ccncc1 | > 100 | > 100 | > 100 µM | > 100 µM | > 100 | > 100 | > 100 | > 100 µM | – | – | – | – | – | – | – | – | – | –
3 | O=[N+]([O-])c1ccc(C(Cl)C(Cl)c2ccc(C(Cl)C(Cl)c3ccc([N+](=O)[O-])cc3[N+](=O)[O-])cc2)c([N+](=O)[O-])c1 (stereo not given) | 4.83 | – | 3.3 µM and 0.55 µM | 5.04 µM and 4.46 µM | – | – | – | 3.27 µM and 0.472 µM | 0.244 | 0.214 | 0.362 | 0.23 | 0.231 | 0.231 | – | – | – | –
4 | CC1=NN(C(=O)Nc2ccc(Cl)cc2)C(=O)C2CCC(=O)N12 (stereo not given) | – | > 100 | 44.2 µM | > 100 µM | > 100 | – | > 100 | > 100 µM | – | – | – | – | – | – | – | – | – | –
5 | N#CC1=C(N)NC(=S)NC12Nc1ccccc1S2 (stereo not given) | > 100 | > 100 | > 100 µM | > 100 µM | 38.1 | > 100 | > 100 | > 100 µM | 35.8 | 28.9 | 37.7 | 31.2 | 30.4 | 44.2 | 75.7 | 14.6 | 22 | 71.7
6 | Cc1ccc(/C=C(\NC(=O)c2ccccc2)c2nc3ccccc3[nH]2)cc1 | > 100 | > 100 | > 100 µM | > 100 µM | > 100 | – | – | 80.1 µM | – | – | – | – | – | – | – | – | – | –
7 | NC1CCCCC1N.O=C1C=C/C(=C(/c2ccc(O)c(Br)c2)c2ccccc2S(=O)(=O)[O-])C=C1Br.O=C1C=C/C(=C(/c2ccc(O)c(Br)c2)c2ccccc2S(=O)(=O)[O-])C=C1Br.[Pt+4] | 87.7 | > 100 | > 100 µM | > 100 µM | > 100 | – | > 100 | > 100 µM | 8.03 | 3.85 | 2.42 | – | 0.992 | 10.1 | 2 | 13.8 | – | –
